Experimental data published in patent EP4696688A1, “BENZO-FUSED RING COMPOUND INHIBITOR, AND PREPARATION METHOD THEREFOR AND USE THEREOF” (Shanghai Hansoh Biomedical Co., Ltd., priority 2023, dated 2024).
Read-outs that look alike come from different tables or passages of the source.

Key:
[1] = biological target: T1, human CYP11B2 (Homo sapiens, UniProt P19099); assay: G-402 cell enzyme experiment, CYP11B2 (aldosterone product, HTRF); assay type: cell-based; conditions: G-402 cells stably expressing human CYP11B2, 1 µM 11-deoxycorticosterone, 16 h
T1 construct: The main elements of an expression plasmid include ORF of human CYP11B1 or human CYP11B2; expressed in transfected cells
T1 sequence (P19099 25-503): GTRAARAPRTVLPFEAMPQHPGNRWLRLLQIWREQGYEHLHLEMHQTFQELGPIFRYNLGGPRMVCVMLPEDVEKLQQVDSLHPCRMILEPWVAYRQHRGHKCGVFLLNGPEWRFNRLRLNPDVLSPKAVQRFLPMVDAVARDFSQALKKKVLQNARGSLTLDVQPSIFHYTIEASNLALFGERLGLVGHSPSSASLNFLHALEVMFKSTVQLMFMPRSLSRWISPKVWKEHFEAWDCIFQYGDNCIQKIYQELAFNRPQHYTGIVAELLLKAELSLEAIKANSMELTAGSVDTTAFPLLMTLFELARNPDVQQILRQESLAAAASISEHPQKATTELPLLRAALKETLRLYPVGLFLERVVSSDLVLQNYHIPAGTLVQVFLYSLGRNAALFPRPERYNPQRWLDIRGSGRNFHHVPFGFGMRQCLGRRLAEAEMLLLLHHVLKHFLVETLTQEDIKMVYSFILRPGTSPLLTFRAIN
Text: (§1) G-402 cell line was used as host cells to express (by transient or stable transfection) an enzyme of the human CYP11 family. Specifically, G-402 cell lines stably expressing human CYP11B1 and human CYP11B2 were established respectively. […] Therefore, the G-402 cell line is very suitable as a host cell for the ectopic expression of an enzyme of the CYP11 family.
(§2) The G-402 cell line, originally derived from renal myoblastoma, can be obtained from ATCC (CRL-1440). The main elements of an expression plasmid include ORF of human CYP11B1 or human CYP11B2, a suitable promoter (CMV promoter), and a suitable resistance marker (neomycin). The expression plasmid was transfected into G-402 cells by standard technology, and a specific antibiotic was then given for screening. The activity of the enzyme expressed by the screened monoclonal cells was assessed by 11-deoxycorticosterone (substrate of CYP11B2) and 11-deoxycortisol (substrate of CYP11B1).
(§3) The G-402 cells expressing CYP11 plasmid, as established in the above solution, were cultured in McCoy's 5a Modified Medium (ATCC Catalog No. 30-2007) containing 10% FCS and 400 µg/ml G418 in an incubator at 37°C and 5% CO2. A cell enzyme experiment was carried out using DMEM/F12 medium containing 2.5% charcoal-treated FBS and an appropriate concentration of a substrate (1 µM 11-deoxycorticosterone or 1 µM 11-deoxycortisol). In order to detect the activity of the enzyme in the cells, the cells were plated in a 96-well plate and incubated for 16 h. The supernatant was then transferred and analyzed for the concentration of the expected product (the product of CYP11B2: aldosterone; the product of CYP11B1: cortisol). The concentrations of these products were determined by an HTRF experiment of CisBio.
(§4) In the cell enzyme experiment, the inhibitory effect of the test compound on the generated product can reflect the inhibitory effect thereof on the enzyme. The dose-dependent inhibition of the enzyme activity by the compound was calculated by plotting the concentration of the test compound (x axis) versus the measured product level (y axis). Then, the original data was fitted to a 4-parameter sigmoidal function (Morgan-Mercer-Flodin, MMF model) by least square method: y = (AB + Cx^D) / (B + x^D) in which A is the maximum y value, B is the EC50 determined by XLFit, C is the minimum y value, and D is the slope value. The maximum value A corresponds to the amount of the product detected without an inhibitor, and C corresponds to the amount of the product detected in the G402 cells expressing an empty plasmid.
(§5) The EC50 value of the compound of the present invention was determined by the above G-402 experiment system. The activity of the CYP11B2 enzyme was determined under the conditions of 1 µM 11-deoxycorticosterone and a variable amount of the inhibitor, and the activity of the CYP11B1 enzyme was determined under the conditions of 1 µM 11-deoxycortisol and a variable amount of the inhibitor.

[2] = biological target: T2, human CYP11B1 (Homo sapiens, UniProt P15538); assay: G-402 cell enzyme experiment, CYP11B1 (cortisol product, HTRF), selectivity versus CYP11B2; assay type: cell-based; conditions: human selective factor: ratio of CYP11B1 EC50 to CYP11B2 EC50; G-402 cells
T2 construct: The main elements of an expression plasmid include ORF of human CYP11B1 or human CYP11B2; expressed in transfected cells
T2 sequence (P15538 25-503): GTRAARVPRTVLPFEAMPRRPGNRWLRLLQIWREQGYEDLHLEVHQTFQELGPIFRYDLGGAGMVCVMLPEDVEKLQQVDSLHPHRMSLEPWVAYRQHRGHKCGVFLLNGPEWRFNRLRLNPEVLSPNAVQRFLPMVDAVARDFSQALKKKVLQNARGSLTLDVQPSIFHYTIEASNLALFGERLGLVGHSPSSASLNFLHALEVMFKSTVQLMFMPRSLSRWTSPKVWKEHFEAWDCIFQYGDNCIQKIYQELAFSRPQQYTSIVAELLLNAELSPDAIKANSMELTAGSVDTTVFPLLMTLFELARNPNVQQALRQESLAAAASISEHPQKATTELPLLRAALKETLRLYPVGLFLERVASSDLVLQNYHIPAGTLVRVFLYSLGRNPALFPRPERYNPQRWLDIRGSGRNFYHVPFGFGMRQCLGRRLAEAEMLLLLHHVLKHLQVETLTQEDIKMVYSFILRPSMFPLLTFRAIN
Text: as §1, §2, §3, §4, §5

[3] = Pharmacokinetic determination in rats; assay type: in vivo; conditions: rat, male SD rats, plasma, oral administration (PO) 5 mg/kg; for MRT inf: read-out: MRT0-∞
Procedure: SD rats were used as test animals to study the pharmacokinetic behavior of the compounds of the present invention in rats (plasma) after oral administration.
3 SD rats per group, male.
Formulation of drug for oral administration: 0.5% CMC-Na (1% Tween 80)
5 g of sodium carboxymethyl cellulose (CMC-Na, viscosity: 800-1200 Cps) was weighed and dissolved in 1000 mL of purified water, and 10 g of Tween 80 was added. These materials were uniformly mixed to form a clear solution.
The example compounds were weighed and dissolved in the solution and the mixture was shaken well and ultrasonicated for 15 min to obtain a colorless clear solution with a concentration of 0.5 mg/mL. Formulation of drug for intravenous administration: 5% DMSO + 10% Solutol HS15 + 85% PBS
After overnight fasting, 3 male SD rats per group were administered orally (PO) at a dose of 5 mg/kg with an administration volume of 10 mL/kg. […]
0.2 mL of blood was collected from the jugular vein of the experimental animals before administration and at 0.25 h, 0.5 h, 1.0 h, 2.0 h, 4.0 h, 6.0 h, 8.0 h, and 24.0 h after administration and placed in an EDTA-2K test tube, and the test tube was centrifuged at 8000 rpm for 6 min at 4°C to separate the plasma, which was stored at -80°C; and the animals were fed 4 h after administration.
3 Experimental results: The final determination results were obtained by using LCMS/MS method.

In the case of `CN(c1cncc(-c2ccc3c(c2)sc(=O)n3C)c1)C1CN(C(=O)c2cnn(C)c2)C1` [Example 89, 3-methyl-6-(5-(methyl(1-(1-methyl-1H-pyrazole-4-carbonyl)azetidin-3-yl)amino)pyridin-3-yl)benzo[d]thiazol-2(3H)-one], the EC50 [1] is reported as 9 nM.
With `CCC(=O)NC1CC2(C1)CN(c1cncc(-c3ccc4nc(OC)ccc4c3)c1)C2` [Example 64, N-(2-(5-(2-methoxyquinolin-6-yl)pyridin-3-yl)-2-azaspiro[3.3]heptan-6-yl)propanamide] the EC50 [1] was 32 nM.
Work on `Cn1c(=O)sc2cc(-c3cncc(N4CC5(CN(C(=O)C6(C#N)CC6)C5)C4)n3)ccc21` [Example 106, 1-(6-(6-(3-methyl-2-carbonyl-2,3-dihydrobenzo[d]thiazol-6-yl)pyrazin-2-yl)-2,6-diazaspiro[3.3]heptane-2-carbonyl)cyclopropane-1-carbonitrile] yielded a hsF [2] of 3103x.
In the case of `CN1C(=O)OCc2cc(-c3cncc(N4CC5(CN(C(=O)c6cnn(C)c6)C5)C4)c3)ccc21` [Example 5, 1-Methyl-6-(5-(6-(1-methyl-1H-pyrazole-4-carbonyl)-2,6-diazaspiro[3.3]heptan-2-yl)pyridin-3-yl)-1,4-dihydro-2H-benzo[d][1,3]oxazin-2-one], the hsF [2] is reported as over 1279x.
`CCC(=O)N[C@H]1c2cncc(-c3ccc4c(c3)sc(=O)n4C)c2C2CC21` (stereo partly drawn) [Example 66-P2, N-((6R)-4-(3-methyl-2-oxo-2,3-dihydrobenzo[d]thiazol-6-yl)-4b,5,5a,6-tetrahydrocyclopropyl[3,4]cyclopenta[1,2-c]pyridin-6-yl)propanamide] showed a hsF [2] of over 1471x.
`Cn1cc(C(=O)N2CC3(C2)CN(c2cncc(-c4ccc5c(ccc(=O)n5C)c4)c2)C3)cn1` [Example 69, 1-methyl-6-(5-(6-(1-methyl-1H-pyrazole-4-carbonyl)-2,6-diazaspiro[3.3]heptan-2-yl)pyridin-3-yl)quinolin-2(1H)-one] showed a hsF [2] of 585x.
In the case of `CN1C(=O)C2CC2c2cc(-c3cncc(N4CC5(CN(C(=O)c6cnn(C)c6)C5)C4)c3)ccc21` (stereo not shown) [Example 75, 3-methyl-6-(5-(6-(1-methyl-1H-pyrazole-4-carbonyl)-2,6-diazaspiro[3.3]heptan-2-yl)pyridin-3-yl)-1,1a,3,7b-tetrahydro-2H-cyclopropa[c]quinolin-2-one], the hsF [2] is reported as over 16666x.
With `CC(=O)N[C@@H]1CCCc2c(-c3cnc4c(c3)CCC(=O)N4C)cncc21` [Example 59, (R)-N-(4-(8-methyl-7-carbonyl-5,6,7,8-tetrahydro-1,8-diazanaphthalen-3-yl)-5,6,7,8-tetrahydroisoquinolin-8-yl)acetamide] the hsF [2] was over 388x.
For `CN1C(=O)OCc2cc(-c3cncc(C4=CCN(S(=O)(=O)C5CC5)CC4)c3)ccc21` [Example 41, 6-(1'-(cyclopropylsulfonyl)-1',2',3',6'-tetrahydro-[3,4'-bipyridine]-5-yl)-1-methyl-1,4-dihydro-2H-benzo[d][1,3]oxazin-2-one], the hsF [2] was 394x.
In the case of `CN(c1cncc(-c2ccc3c(ccc(=O)n3C)c2)c1)C1CN(C(=O)c2cnn(C)c2)C1` [Example 74, 1-methyl-6-(5-(methyl(1-(1-methyl-1H-pyrazole-4-carbonyl)azetidin-3-yl)amino)pyridin-3-yl)quinolin-2(1)-one], the hsF [2] is reported as 371x.
With “6-(5-(2-ethoxyquinolin-6-yl)pyridin-3-yl)-2,6-diazaspiro[3.3]heptan-2-yl)(1-(methyl-d3)-1H-pyrazol-4-yl)methanone [Example 42]” the hsF [2] was 393x.
With `Cn1c(=O)sc2cc(-c3cncc(N4CC5(CN(C(=O)C6(C#N)CC6)C5)C4)c3)ccc21` [Example 105, 1-(6-(5-(3-methyl-2-carbonyl-2,3-dihydrobenzo[d]thiazol-6-yl)pyridin-3-yl)-2,6-diazaspiro[3.3]heptane-2-carbonyl)cyclopropane-1-carbonitrile] the hsF [2] was 1372x, the AUC(0-inf) ([3]; in vivo) was 66500 ng·h/mL and the AUC(0-t) ([3]; in vivo) was 60400 ng·h/mL. The Cmax ([3]; in vivo) was 6040 ng/mL, the Tmax ([3]; in vivo) was 4 h and the half-life ([3]; in vivo) was 7 h. For the same molecule, the MRT inf ([3]; in vivo) was 9.6 h.
Work on `Cn1cc(C(=O)N2CC(Oc3cncc(-c4ccc5c(c4)sc(=O)n5C)n3)C2)cn1` [Example 99, 3-methyl-6-(6-((1-(1-methyl-1H-pyrazole-4-carbonyl)azetidin-3-yl)oxy)pyrazin-2-yl)benzo[d]thiazol-2(3H)-one] yielded a hsF [2] of over 3509x.
Molecule `Cn1cc(C(=O)N2CC3(C2)CN(c2cncc(-c4ccc5c(c4)sc(=O)n5C)c2)C3)cn1` [Example 67, 3-methyl-6-(5-(6-(1-methyl-1H-pyrazole-4-carbonyl)-2,6-diazaspiro[3.3]heptan-2-yl)pyridin-3-yl)benzo[d]thiazol-2(3H)-one] has a hsF [2] of over 485x, an AUC(0-inf) [3] of 31400 ng·h/mL and an AUC(0-t) [3] of 31400 ng·h/mL. The Cmax [3] was 4910 ng/mL, the Tmax [3] was 4 h and the half-life [3] was 2 h. It also gave an MRT inf [3] of 3.9 h.
For `CCC(=O)N[C@@H]1CCCc2c(-c3ccc4c(c3)COC(=O)N4C)cncc21` [Example 1-A], the hsF [2] was 144x, the AUC(0-inf) [3] was 27700 ng·h/mL and the AUC(0-t) [3] was 27600 ng·h/mL. For the same molecule, the Cmax [3] was 6330 ng/mL, the Tmax [3] was 1 h and the half-life [3] was 2.6 h. The MRT inf [3] was 3.7 h.
In the case of `Cn1cc(C(=O)N2CC(Oc3cncc(-c4ccc5c(ccc(=O)n5C)c4)c3)C2)cn1` [Example 98, 1-methyl-6-(5-((1-(1-methyl-1H-pyrazole-4-carbonyl)azetidin-3-yl)oxy)pyridin-3-yl)quinolin-2(1H)-one], the hsF [2] is reported as 2014x.
